Results from patent publication US5084564A, “Production of oligosaccharide fractions having antithrombotic properties by controlled chemical depolymerization of heparin” (Bioiberica, S.A., priority 1988, dated 1992).

Conditions: rat, in vivo, sc

bioavailability: 48-60%
Substance: heparin
